From patent US20250179113A1, “STEROID COMPOUND FOR TREATING CENTRAL NERVOUS SYSTEM DISEASE, METHOD FOR PREPARING SAME, AND USE AND PHARMACEUTICAL COMPOSITION THEREOF” (HUNAN KYF PHARMACEUTICAL CO., LTD., priority 2022, published 2025)

How the values were obtained:
[1] = test system: mouse model of acute depression; test: Tail-suspension test, mouse model of acute depression; format: in vivo, ICR mice; settings: 3 days; for Average Duration of Immobile State (Mean ± Standard Deviation), female: female ICR mice, model control 170.57 ± 28.43; for Average Duration of Immobile State (Mean ± Standard Deviation), female / Average Duration of Immobile State (Mean ± Standard Deviation), male: 26.0 mg/kg intraperitoneal, tested 24 h after administration, last 4 of 6 min, n = 5, 26 mg/kg; for Average Duration of Immobile State (Mean ± Standard Deviation), male: male ICR mice, model control 151.23 ± 35.02
Protocol: The experimental animals were administered drugs according to the grouping after 3 days of adaptive feeding. The experimental groups included the model group, the compound TM1 group, and the compound TM2 group. For each group of compounds to be tested, edible oil was used as the vehicle, and the administration route for all animals was intraperitoneal injection. The vehicle control group was given the same volume of edible oil by intraperitoneal injection, and the administration volume for each group was 20 mL/kg.
Brexanolone is used to treat postpartum depression. Its usage and dosage are continuous intravenous injection for 60 hours, with a dosage of 100 mg every 12 hours. At the beginning of the administration, it is necessary to gradually increase the drug use rate, and at the end of the administration, it is necessary to gradually decrease the drug use rate. Therefore, the total drug use within the treatment cycle is 450 mg. Referring to the Brexanolone administration cycle, the administration cycle was set to 3 days, with one administration in the morning every day.
The clinical dosage of Brexanolone is approximately 200 mg/d. Calculated based on an adult weight of 70 kg, the clinical dose of Brexanolone is 2.857 mg/kg/d. The equivalent dose conversion coefficient between humans and mice calculated according to body surface area is 0.0026. Taking the weight of mice as 20 g, the converted dose for mice is: 2.857 mg/kg/d×70 kg×0.0026/0.02 kg=25.999 mg/kg/d, which is counted as 26.0 mg/kg/d.
This study is for validity verification, and single-dose detection is used for the time being. The administration cycle and clinical dosage of the compounds of the present invention refer to the administration cycle and clinical dosage of Brexanolone mentioned above.
The detection indicator is the behavioral changes of mice in the last 4 minutes within 6 minutes, including the time when the immobile state first appears and the duration of the immobile state. Among them, the immobile state refers to the state in which the animal gives up active struggling and remains completely still.
Detection method: 24 hours after the administration of drugs to animals in each group, the animals in each group were placed in the laboratory for 30 minutes to 1 hour to reduce the animals' anxiety about the new environment. Install a video camera in front of the tail suspension box, set the corresponding parameters in the software, and enter the information such as the animal number and status. Take out the experimental animals, mark them with a marker pen at a position […] away from the tip of the tail, fix the tail at the marked position with medical tape. After the tails of the animals in the same group are fixed with tape, quickly suspend the mice in the same group into the tail suspension box device, turn on the behavioral software to record the behavioral situation for 6 minutes, and analyze the behavioral changes in the last 4 minutes.

[2] = test system: GABAa receptor chloride ion channel of U251 cells; test: MQAE chloride ion fluorescent probe test on U251 cells (GABA-activated chloride channel); format: cell-based, human; settings: sample 10 μM (Table 1), GABA in matrix, 1 min after addition, n = 6, vehicle control 42.543 ± 4.202
[3] = test system: GABAA receptor (primary hippocampal neuronal cells); test: Whole-cell patch clamp of GABA receptor currents in primary hippocampal neuronal cells; format: cell-based, SD suckling mice; settings: average

Row | SMILES | Average Duration of Immobile State (Mean ± Standard Deviation), female [1] [s] | Average Duration of Immobile State (Mean ± Standard Deviation), male [1] [s] | Average fluorescence intensity (mean ± standard deviation) [2] | The percentage increase after calibration with GABA 15 μM as the reference, GABA 15 μM + TM 18 0.01 μM ([3]; TM 18 0.01 μM with GABA 15 μM) [%] | The percentage increase after calibration with GABA 15 μM as the reference, GABA 15 μM + TM 18 0.1 μM ([3]; TM 18 0.1 μM with GABA 15 μM) [%] | The percentage increase after calibration with GABA 15 μM as the reference, GABA 15 μM + TM 18 1 μM ([3]; TM 18 1 μM with GABA 15 μM) [%] | immobility time prolonged compared with the model control group, male animals ([1]; male mice, 26.0 mg/kg i.p.)
1 | CC1(O)CCC2(C)C(CCC3C2CCC2(C)C(C(=O)Cn4cc(C#N)cn4)CCC32)C1 (stereo not shown) [TM17] | 198.88 ± 15.08 | 177.67 ± 20.05 | 47.499±2.240 |  |  |  | 
2 | CC1(O)CCC2(C)C(CCC3C2CCC2(C)C(C(=O)Cn4cc(C#N)cn4)CCC32)C1 (stereo not shown) [TM18] | 174.02 ± 18.28 | 193.80 ± 15.62 | 48.621±1.006 | 129.85 | 288.44 | 108.82 | about 20%
